Assay results taken from patent publication US20130205438A1, “DOUBLING OF CHROMOSOMES IN HAPLOID EMBRYOS” (PIONEER HI BRED INTERNATIONAL INC, priority 2005, published 2013).
Marks after values point to notes of the source that are not given here.

Legend:
Assay type in all cases: in vivo
[1] = system: haploid embryos of maize plant "A"; assay: Chromosome doubling of isolated haploid immature maize embryos on colchicine medium (Example 2); conditions: 0.05% colchicine, 24 hours
Procedure: A diploid maize plant, “A”, was pollinated with a haploid inducer line containing GFP. Immature embryos were isolated at 12 days after pollination and the embryo size is ranged from 1.9-2.0 mm long. The diploid embryos, GFP expressing embryos, were discarded. The haploid embryos, based on the absence of the GFP marker expression, were cultured on a medium comprising MS salts, MS vitamins, thiamine, asparagine, BAP, sucrose, gelrite, and 0.05% colchicine with scutellum side up for 24 hours at 26 C in the dark. […] This medium comprised MS salts, MS vitamins, myo-inositol, sucrose, and gelrite. The plantlets germinated from these treated embryos, were transferred to a light culture room at 26 C for another 2 -3 weeks until healthy plantlets with good roots developed. These plantlets were transferred to soil and grown in a regular greenhouse to maturation. The plants were self-pollinated and the mature seeds will be harvested. The harvested seed from each plant will be grown as an ear-row and the plants will examined for uniformity of the plant morphology within each ear-row.

[2] = system: haploid embryos of maize lines "B" and "C"; assay: Chromosome doubling of isolated haploid immature maize embryos on pronamide medium (Example 3); conditions: 6 uM pronamide, 48 hours
Procedure: Two different diploid maize lines, “B” and “C” were pollinated with a haploid inducer line, containing homozygousGFP. Immature embryos were isolated at 11 days after pollination and embryo size ranged from 1.5-1.6 mm in length. The diploid embryos, embryos showing GFP expression, were discarded. The haploid embryos, embryos not expressing GFP, were cultured on a modified MS medium containing 6 uM pronamide with scutellum side up for 48 hours at 26 C in dark. Alter approximately 48 hours the embryos were transferred to a modified MS medium without any doubling agent. Embryos were placed with scutellum side down for 6-10 days at 26 C in the dark. The plantlets germinated torn these treated embryos were then moved into a light culture room at 28 C for another 3 weeks till healthy plantlets with good roots developed. These plantlets were then transferred to soil and grown in a regular greenhouse to maturation. The plants were self pollinated and the mature seeds will be harvested. The harvested seed will be planted as an ear-row. The plants within a row will be examined for uniformity of the plant morphology.

[3] = system: immature embryos of hybrid maize plants pollinated with maternal-haploid-inducing line; assay: Testing different hybrids and timing of doubling agent (Example 9)
Procedure: A maternal-haploid-inducing maize line was used to pollinate 4 different hybrid plants. The immature embryos derived from these crosses were isolated and placed directly on embryo rescue medium containing 5 uM pronamide. Embryos were kept on the pronamide medium for approximately 36 or 48 hours before being transferred to new media without the doubling agent.
The plantlets germinated from these treated embryos were then transferred into tubes until healthy plantlets with good roofs developed. These plantlets were then transferred to soil and grown in a regular greenhouse to maturation. The plants were self-pollinated and the mature seeds were harvested.

[4] = system: ears of hybrid maize plants pollinated by haploid inducer plants; assay: Immature ear treatment for haploid doubling, ear/stalk in liquid medium with Pronamide (Example 6); conditions: 5 uM Pronamide, 0.5% DMSO, one day
Excerpt: Hybrid maize plants were pollinated by haploid inducer plants. The ears with part of the stalks attached were harvested from the hybrid plants 4-6 days after pollination (embryo length less than 0.4 mm). The stalks were about 4-8 inches long on each side of where the ears were attached. The ears and the attached stalks are surface sterilized with 70% ethanol or 5% Chlorox. The lower ends of the stalks containing the ears were emerged into liquid medium containing MS medium, MS vitamins, sucrose, etc and 5 uM Pronamide, 0.5% DM SO for one day at 26 C. Then the ears still contained an the stalks were moved to a fresh medium containing MS medium, MS vitamins, sucrose etc. without doubling agent to allow the embryos and kernels to develop. The embryos within the ear can be isolated at any time after doubling. Embryo rescue can then be used to germinate immature embryos into plants. The germinated plants were grown to examine fertility.

[5] = Ear 1, ear/stalk harvest 6 days after pollination
[6] = Ear 2, ear/stalk harvest 6 days after pollination
[7] = Ear 3, ear/stalk harvest 5 days after pollination
[8] = Ear 4, ear/stalk harvest 4 days after pollination

Compound: COc1cc2c(c(OC)c1OC)-c1ccc(OC)c(=O)cc1[C@@H](NC(C)=O)CC2 [colchicine, (S)-N-(5,6,7,9-tetrahydro-1,2,3,10-tetramethoxy-9-oxobenzo (a)heptalen-7-yl) acetamide]
- Fully Fertile Plants ([1]; Ear 1, 3 haploid embryos): 2
- Fully Fertile Plants ([1]; Ear 2, 7 haploid embryos): 4*
- Fully Fertile Plants ([1]; Ear 3, 9 haploid embryos): 8
- Fully Fertile Plants, percent of plantlets to greenhouse ([1]; Sum of 3 ears): (93.3%)
- Plantlets Germinated, percent of haploid embryos ([1]; Sum of 3 ears): (84.2%)
- Fully Fertile Plants ([1]; Sum of 3 ears, 19 haploid embryos): 14

Compound: C#CC(C)(C)NC(=O)c1cc(Cl)cc(Cl)c1 [pronamide, 3,5-dichloro-N-(1,1-dimethyl-2-propynyl)benzamide]
- Fully Fertile Plant ([2]; Line B, 11 haploid embryos): 2*
- Fully Fertile Plant ([2]; Line C, 4 haploid embryos): 3
- Fully Fertile Plant, percent of plantlets to greenhouse ([2]; Sum of lines B and C): (83.3%)
- Plantlet Germinated, percent of haploid embryos ([2]; Sum of lines B and C): (53.3%)
- Fully Fertile Plant ([2]; Sum of lines B and C, 15 haploid embryos): 5
- # of Double Haploid Plants with Ears ([3]; 5 uM Pronamide 36 hours, Hybrid 1, 11 days after pollination, 100 embryos excised, embryo size 2.5 mm): 1
- # of Double Haploid Plants with Ears ([3]; 5 uM Pronamide 36 hours, Hybrid 1, 12 days after pollination, 300 embryos excised, embryo size 2.5 mm): 1
- # of Double Haploid Plants with Ears ([3]; 5 uM Pronamide 36 hours, Hybrid 2, 11 days after pollination, 176 embryos excised, embryo size 2.5-3 mm): 4
- # of Double Haploid Plants with Ears ([3]; 5 uM Pronamide 36 hours, Hybrid 3, 12 days after pollination, 279 embryos excised, embryo size 2.5-3 mm): 13
- # of Double Haploid Plants with Ears ([3]; 5 uM Pronamide 36 hours, Hybrid 4, 12 days after pollination, 322 embryos excised, embryo size 2.5 mm): 2
- # of Double Haploid Plants with Ears ([3]; 5 uM Pronamide 48 hours, Hybrid 3, 10 days after pollination, 236 embryos excised, embryo size 2 mm): 6
- # of Double Haploid Plants with Ears ([3]; 5 uM Pronamide 48 hours, Hybrid 4, 10 days after pollination, 144 embryos excised, embryo size 2 mm): 3
- Homozygosity of progeny of double haploid plants ([3]; 5 uM pronamide 36 or 48 hours, sample of plants, 120 molecular markers): confirmed for homozygosity
- % of plants with fertile tassel [4, 5]: 67%
- Number of plants with fertile tassel [4, 5]: 16
- Number of plants with sterile tassel [4, 5]: 8
- % of plants with fertile tassel [4, 6]: 94%
- Number of plants with fertile tassel [4, 6]: 30
- Number of plants with sterile tassel [4, 6]: 2
- % of plants with fertile tassel [4, 7]: 70%
- Number of plants with fertile tassel [4, 7]: 14
- Number of plants with sterile tassel [4, 7]: 6
- % of plants with fertile tassel [4, 8]: 95%
- Number of plants with fertile tassel [4, 8]: 19
- Number of plants with sterile tassel [4, 8]: 1
- % of plants with fertile tassel ([4]; Sum of 4 ears): 82%
- Number of plants with fertile tassel ([4]; Sum of 4 ears): 79
- Number of plants with sterile tassel ([4]; Sum of 4 ears): 17
